Laboratory results published in US20140349852A1, “METABOLIC CONTROL OF SEED GERMINATION” (Oregon State University, priority 2010, published 2014).

Columns and labels:
[1] = tested on: AGE:NCED6 transgenic Camelina seeds; assay: Germination test of Camelina AGE:NCED6 seeds; type: in vivo, Camelina sativa; parameters: recovery of germination of MOF-induced AGE:NCED6 Camelina seeds: dose or concentration left out as unconfirmed
Procedure: (§1) For the induction experiment in imbibed seeds, seeds were placed in 9 cm plastic petri dishes on two layers of filter paper (No. 2, Whatman Inc.) moistened with 4 mL water or (122.6 μM or 2×10,000) MOF or 1 mM ABA and incubated at 4° C. for overnight and at 22° C. for 72 h (germination tests and gene expression analysis).
To determine whether there was an effect of the AGE: NCED6 expression vector on the ability of transgenic seeds to undergo germination, wild-type and homozygous seeds from transgenic plant lines, 16-12, 17-17, and 13-12, were imbibed for three days in the presence or absence of MOF. […] Control seeds of non-transgenic plants were shown the same in the presence or absence of MOF. Germination of Camelina seeds is observed initially as ruptured testa followed by emergence of the […] when the radicle emerges.

AGE:NCED6 seeds = assay: Germination test of imbibed AGE:NCED6 seeds; type: in vivo, Arabidopsis thaliana; settings: 10 μM fluridone co-applied with Intrepid®2F
Procedure: Briefly, for the induction of AGE:NCED6 plants at ˜10 rosette stages, diluted (×10,000), Intrepid®2F (Dow AgroSciences) solution which contained 62 μM MOF as an active ingredient was applied directly to the soil in pots containing Arabidopsis seedlings by drenching. Seedling were harvested two days after induction and frozen at −80° C. before RNA extraction. For the induction experiments in imbibed seeds, seeds were placed in 9 cm plastic petri dishes on two layers of filter paper (No. 2, Whatman Inc) moistened with 3.5 mL water or Intrepid®2F (×10,000) and incubated at 4° C. for 3 days and at 22° C. for 29 h (gene expression analysis) or 5 days (germination tests).

[2] = tested on: ABA levels in AGE:NCED6 Camelina seeds; assay: ABA quantification in Camelina seeds by mass spectrometry; type: in vivo, Camelina sativa; settings: after application of MOF
Procedure: ABA was quantified by a previously published method (44), but was modified to ABA. Briefly, samples were ground in liquid nitrogen and internal standards ([…] of 2.5 mM) were added. Samples were extracted with 1.5 mL acetonitrile/methanol (1:1 v:v). After lyophilization, samples were resolubilized in […] of 50% MeOH. For LC separation, two monolithic C18 columns (Onyx, 4.6 mm×100 mm, Phenomenex) with a guard cartridge were used flowing at 1 mL min^−1. […] For quantitation, a series of standards were prepared containing different concentrations of ABA mixed with D-labeled ABA (250 μmol/sample). […] The peak areas of endogenous ABA were normalized with the corresponding internal standard and then calculated according to the standard curve.
To examine whether ABA levels in the AGE: NCED6 seeds were affected by gene induction, ABA in wild-type and the AGE: NCED6 seeds was quantified by mass spectrometry, as described previously. […]

[3] = tested on: Arabidopsis NCED6 expression in AGE:NCED6 Camelina seeds; assay: Real time PCR analysis of Arabidopsis NCED6 in Camelina seeds; type: in vivo, Camelina sativa; settings: imbibed three days in the presence or absence of MOF
[4] = tested on: AGE:CYP707A2 transgenic Camelina seeds; assay: Germination test of Camelina AGE:CYP707A2 seeds; type: in vivo, Camelina sativa; settings: imbibed three days in the presence of MOF or MOF+ABA (1 mM ABA)
Procedure: as §1
To determine whether there was an effect of AGE: CYP707A2 transgenic seeds on germination during imbibitions, wild-type and homozygous seeds from transgenic plant lines, 14-3, 3-6, and 2-1, were imbibed for three days in the presence of MOF or in the presence of MOF+ABA.

[5] = tested on: control seeds of non-transgenic plants; assay: Germination test of wild-type Camelina seeds; type: in vivo, Camelina sativa; settings: presence or absence of MOF
Procedure: as §1

Molecule	recovery of germination of MOF-induced AGE:NCED6 Camelina seeds ([1]; co-application of MOF and fluridone, data not shown)	recovery of germination of ligand-suppressed AGE:NCED6 seeds (AGE:NCED6 seeds)	inhibition of germination (endosperm rupture and radicle protrusion), line 13-12 ([1]; AGE:NCED6 Camelina line 13-12, MOF, three days) [%]	inhibition of germination (endosperm rupture and radicle protrusion), line 16-12 ([1]; AGE:NCED6 Camelina line 16-12, MOF, three days) [%]	inhibition of germination (endosperm rupture and radicle protrusion), line 17-17 ([1]; AGE:NCED6 Camelina line 17-17, MOF, three days) [%]	germination of AGE:NCED6 Camelina seeds ([1]; imbibed three days in the presence of MOF (122.6 μM))	ABA in AGE:NCED6 Camelina seeds [2]	Arabidopsis NCED6 expression in Camelina seeds by real time PCR [3]	germination of AGE:CYP707A2 Camelina seeds, line 2-1 [4] [%]	germination of AGE:CYP707A2 Camelina seeds, line 3-6 [4] [%]	germination of AGE:CYP707A2 Camelina seeds, line 14-3 [4] [%]	germination of control seeds of non-transgenic Camelina plants [5]
fluridone	fully rescued	fully rescued	–	–	–	–	–	–	–	–	–	–
COc1cccc(C(=O)NN(C(=O)c2cc(C)cc(C)c2)C(C)(C)C)c1C [MOF, methoxyfenozide]	–	–	95	89	90	inhibited dramatically	remarkable increase in ABA	did not detect	95	98	99	the same
